Reference: patent publication US9050341B2, “Methods of treating drug resistant and other tumors by administering 6,7-dialkoxy quinazoline derivatives” (NATCO PHARMA LIMITED, priority 2009, dated 2015)

Assays:
Assay in all cases: KinomeScan kinase profiling
Assay type in all cases: binding
ULK3 = molecular target: T1, ULK3 (Homo sapiens, UniProt Q6PHR2)
T1 construct: purchased Ambit Biosciences Corp (KinomeScan); host or cells: E. coli host derived from the BL21 strain (T7 phage lysate)
Text: (§1) The kinases were ABL1(F317L), ABL1(H396P), ABL1(Q252H), ABL1(Y253F), ADCK3, ADCK4, ALK, ARK5, AXL, BLK, BRSK2, CDK7, CIT, CLK4, CSNK1D, CSNK1E, DAPK1, DAPK3, DCAMKL3, DMPK, EGFR, EGFR(E746-A750DEL), EGFR(G719C), EGFR(G719S), EGFR(L747-E749DEL, A750P), EGFR(L747-S752 DEL, P753S), EGFR(L747-T751DEL, Sin), EGFR(L858R), EGFR(L861Q), EGFR(S752-I759DEL), EPHA5, EPHA6, ERBB2, ERBB4, ERK3, ERK4, FGR, FLT3(D835H), FLT3(D835Y), FLT3(ITD), FLT3(N841 I), FRK, GAK, GCN2(KIN.DOM.2, S808G), HCK, IRAK3, JAK1(KIN.DOM.1), KIT, KIT(D816V), KIT(V559D), KIT(V559D,T670I), LCK, LOK, LTK, LYN, MAP3K3, MAP4K4, MAP4K5, MET, MINK, MKNK1, MKNK2, MST4, MYLK2, PDGFRB, PIM3, PKN2, PRKD1, PRKD2, PRKD3, PRKG1, RIPK2, RPS6KA4(KIN.DOM.2), SIK2, SLK, SNARK, SRC, STK36, TNIK, TNNI3K, TYK2(KIN.DOM.2).
(§2) Kinase assays: Assays were performed as described in Fabian et al. (2005) Nature Biotechnology, vol. 23, p. 329. Kinase-tagged T7 phage strains were grown in parallel in 24 or 96-well blocks in an E. coli host derived from the BL21 strain. E. coli were grown to log-phase and infected with T7 phage from a frozen stock (multiplicity of infection ˜0.1) and incubated with shaking at 32° C. until lysis (˜90 minutes). The lysates were centrifuged and filtered to remove cell debris. […] The liganded beads were blocked with excess biotin and washed with blocking buffer (SeaBlock (Pierce), 1% BSA, 0.05% Tween 20, 1 mM DTT) to remove unbound ligand and to reduce non-specific phage binding.
(§3) Test compounds were prepared as 40× stocks in DMSO and diluted into the aqueous environment. 2.5% DMSO was added to control assays lacking a test compound. All reactions were performed in polystyrene 96-well plates that had been pretreated with blocking buffer in a final volume of 0.04 ml. […] The phage titer in the eluates was measured by quantitative PCR.

INSR = molecular target: T2, INSR (Homo sapiens, UniProt P06213)
T2 construct: host or cells: T7 phage in E. coli host derived from BL21
Text: as §1, §2, §3

STK35 = molecular target: T3, STK35 (Homo sapiens, UniProt Q8TDR2)
T3 construct: host or cells: E. coli host derived from the BL21 strain, T7 phage lysate
T3 sequence (Q8TDR2 whole entry): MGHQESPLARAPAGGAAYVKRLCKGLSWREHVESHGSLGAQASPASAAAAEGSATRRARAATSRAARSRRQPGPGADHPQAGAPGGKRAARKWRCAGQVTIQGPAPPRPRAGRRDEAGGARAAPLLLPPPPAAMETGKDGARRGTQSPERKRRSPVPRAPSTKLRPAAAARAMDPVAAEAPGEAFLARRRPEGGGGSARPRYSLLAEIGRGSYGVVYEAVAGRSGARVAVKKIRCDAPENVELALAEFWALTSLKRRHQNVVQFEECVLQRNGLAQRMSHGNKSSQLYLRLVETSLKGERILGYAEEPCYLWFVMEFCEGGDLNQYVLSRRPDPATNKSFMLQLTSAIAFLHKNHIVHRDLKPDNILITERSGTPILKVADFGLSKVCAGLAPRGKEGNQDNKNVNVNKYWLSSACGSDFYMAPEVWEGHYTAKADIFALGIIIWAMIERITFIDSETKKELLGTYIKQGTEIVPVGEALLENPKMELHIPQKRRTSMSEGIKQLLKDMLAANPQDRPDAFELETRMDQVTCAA
Text: as §1, §2, §3

MEK3 = molecular target: T4, MEK3 (Homo sapiens, UniProt P46734)
T4 construct: host or cells: E. coli derived from BL21, infected with T7 phage
T4 sequence (P46734 whole entry): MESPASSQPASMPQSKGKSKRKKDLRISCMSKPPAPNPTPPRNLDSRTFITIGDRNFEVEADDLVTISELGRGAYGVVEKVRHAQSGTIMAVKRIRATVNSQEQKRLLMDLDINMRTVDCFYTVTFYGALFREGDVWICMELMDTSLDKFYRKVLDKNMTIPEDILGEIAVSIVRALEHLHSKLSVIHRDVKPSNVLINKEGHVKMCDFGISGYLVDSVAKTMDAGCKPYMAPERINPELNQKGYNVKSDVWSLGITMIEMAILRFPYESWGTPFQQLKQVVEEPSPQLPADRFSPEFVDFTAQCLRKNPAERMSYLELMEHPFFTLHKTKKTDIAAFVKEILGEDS
Text: as §1, §2, §3

BTK = molecular target: T5, BTK (Homo sapiens, UniProt Q06187)
T5 construct: purchased Ambit Biosciences Corp (KinomeScan); host or cells: E. coli host derived from the BL21 strain, T7 phage
T5 sequence (Q06187 whole entry): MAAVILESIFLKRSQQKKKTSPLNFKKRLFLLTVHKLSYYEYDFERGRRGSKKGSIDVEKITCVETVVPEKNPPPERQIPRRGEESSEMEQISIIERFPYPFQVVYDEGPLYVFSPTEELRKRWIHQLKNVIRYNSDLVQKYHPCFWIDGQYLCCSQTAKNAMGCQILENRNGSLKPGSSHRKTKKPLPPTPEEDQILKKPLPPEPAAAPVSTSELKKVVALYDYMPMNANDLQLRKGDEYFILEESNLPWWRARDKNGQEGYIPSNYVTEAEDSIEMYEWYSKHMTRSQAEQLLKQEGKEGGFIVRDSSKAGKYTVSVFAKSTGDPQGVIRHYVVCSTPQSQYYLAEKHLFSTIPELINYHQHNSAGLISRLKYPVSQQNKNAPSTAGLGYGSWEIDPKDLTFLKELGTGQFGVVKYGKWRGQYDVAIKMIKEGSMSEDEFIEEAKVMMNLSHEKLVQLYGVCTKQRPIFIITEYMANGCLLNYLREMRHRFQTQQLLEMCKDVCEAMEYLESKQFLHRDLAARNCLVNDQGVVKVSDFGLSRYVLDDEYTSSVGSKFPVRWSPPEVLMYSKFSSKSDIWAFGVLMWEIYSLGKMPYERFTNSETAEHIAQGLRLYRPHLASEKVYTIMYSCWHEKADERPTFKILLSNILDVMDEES
Text: as §1, §2, §3

JNK2 = molecular target: T6, JNK2 (Homo sapiens, UniProt P45984)
T6 construct: host or cells: T7 phage in E. coli host derived from BL21
Text: as §1, §2, §3

ITK = molecular target: T7, ITK (Homo sapiens, UniProt Q08881)
T7 construct: host or cells: T7 phage in E. coli host derived from BL21
Text: as §1, §2, §3

IKK-alpha = molecular target: T8, IKK-alpha (Homo sapiens, UniProt O15111)
T8 construct: host or cells: T7 phage in E. coli host derived from BL21
T8 sequence (O15111 whole entry): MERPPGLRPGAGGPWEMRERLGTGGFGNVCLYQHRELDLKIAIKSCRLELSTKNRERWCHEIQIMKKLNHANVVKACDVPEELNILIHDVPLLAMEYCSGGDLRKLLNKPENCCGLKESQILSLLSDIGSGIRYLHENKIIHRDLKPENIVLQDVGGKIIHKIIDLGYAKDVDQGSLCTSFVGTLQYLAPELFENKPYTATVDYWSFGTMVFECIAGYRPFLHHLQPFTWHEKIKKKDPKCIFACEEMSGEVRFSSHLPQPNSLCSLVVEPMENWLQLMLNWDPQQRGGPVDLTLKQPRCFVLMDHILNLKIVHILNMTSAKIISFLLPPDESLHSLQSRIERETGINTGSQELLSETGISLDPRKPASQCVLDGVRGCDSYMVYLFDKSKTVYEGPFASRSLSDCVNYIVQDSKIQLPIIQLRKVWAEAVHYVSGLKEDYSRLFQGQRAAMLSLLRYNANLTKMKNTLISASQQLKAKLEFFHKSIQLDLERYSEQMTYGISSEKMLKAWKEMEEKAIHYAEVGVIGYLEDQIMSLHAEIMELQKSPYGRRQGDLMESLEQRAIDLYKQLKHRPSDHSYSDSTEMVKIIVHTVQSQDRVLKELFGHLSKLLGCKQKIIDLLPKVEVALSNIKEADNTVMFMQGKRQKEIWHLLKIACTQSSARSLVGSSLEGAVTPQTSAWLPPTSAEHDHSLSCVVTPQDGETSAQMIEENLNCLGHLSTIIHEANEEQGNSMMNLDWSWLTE
Text: as §1, §2, §3

EPHA3 = molecular target: T9, EPHA3 (Homo sapiens, UniProt P29320)
T9 construct: host or cells: E. coli host derived from BL21, T7 phage lysate
Text: as §1, §2, §3

EGFR (E746-A750del) = molecular target: T10, EGFR (E746-A750del) (Homo sapiens, UniProt P00533, DEL746-750)
T10 construct: purchased Ambit Biosciences Corp (KinomeScan); host or cells: T7 phage in E. coli host derived from BL21
Text: as §1, §2, §3

[1] = molecular target: T11, TYK2 (JH1domain-catalytic) (Homo sapiens, UniProt P29597)
T11 construct: TYK2 (JH1domain-catalytic); purchased Ambit Biosciences Corp (KinomeScan); host or cells: E. coli host derived from the BL21 strain (T7 phage lysate)
T11 sequence (P29597 897-1176 limits assumed): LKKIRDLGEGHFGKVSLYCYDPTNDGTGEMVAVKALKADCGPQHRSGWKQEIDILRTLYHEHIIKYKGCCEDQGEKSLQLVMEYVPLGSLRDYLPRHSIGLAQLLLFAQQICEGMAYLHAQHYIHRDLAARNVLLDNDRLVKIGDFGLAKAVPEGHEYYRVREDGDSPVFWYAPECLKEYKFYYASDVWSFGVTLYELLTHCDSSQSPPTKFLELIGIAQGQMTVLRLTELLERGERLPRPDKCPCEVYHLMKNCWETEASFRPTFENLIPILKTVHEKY
Text: as §1, §2, §3

RET (M918T) = molecular target: T12, RET (M918T) (Homo sapiens, UniProt P07949, M918T)
T12 construct: host or cells: E. coli host derived from BL21, T7 phage lysate
Text: as §1, §2, §3

PKMYT1 = molecular target: T13, PKMYT1 (Homo sapiens, UniProt Q99640)
T13 construct: purchased Ambit Biosciences Corp (KinomeScan); host or cells: E. coli host derived from BL21, infected with T7 phage
Text: as §1, §2, §3

ABL1 (E255K) = molecular target: T14, ABL1 (E255K) (Homo sapiens, UniProt P00519, E255K)
T14 construct: host or cells: E. coli host derived from BL21 (T7 phage lysate)
T14 sequence (P00519 whole entry E255K): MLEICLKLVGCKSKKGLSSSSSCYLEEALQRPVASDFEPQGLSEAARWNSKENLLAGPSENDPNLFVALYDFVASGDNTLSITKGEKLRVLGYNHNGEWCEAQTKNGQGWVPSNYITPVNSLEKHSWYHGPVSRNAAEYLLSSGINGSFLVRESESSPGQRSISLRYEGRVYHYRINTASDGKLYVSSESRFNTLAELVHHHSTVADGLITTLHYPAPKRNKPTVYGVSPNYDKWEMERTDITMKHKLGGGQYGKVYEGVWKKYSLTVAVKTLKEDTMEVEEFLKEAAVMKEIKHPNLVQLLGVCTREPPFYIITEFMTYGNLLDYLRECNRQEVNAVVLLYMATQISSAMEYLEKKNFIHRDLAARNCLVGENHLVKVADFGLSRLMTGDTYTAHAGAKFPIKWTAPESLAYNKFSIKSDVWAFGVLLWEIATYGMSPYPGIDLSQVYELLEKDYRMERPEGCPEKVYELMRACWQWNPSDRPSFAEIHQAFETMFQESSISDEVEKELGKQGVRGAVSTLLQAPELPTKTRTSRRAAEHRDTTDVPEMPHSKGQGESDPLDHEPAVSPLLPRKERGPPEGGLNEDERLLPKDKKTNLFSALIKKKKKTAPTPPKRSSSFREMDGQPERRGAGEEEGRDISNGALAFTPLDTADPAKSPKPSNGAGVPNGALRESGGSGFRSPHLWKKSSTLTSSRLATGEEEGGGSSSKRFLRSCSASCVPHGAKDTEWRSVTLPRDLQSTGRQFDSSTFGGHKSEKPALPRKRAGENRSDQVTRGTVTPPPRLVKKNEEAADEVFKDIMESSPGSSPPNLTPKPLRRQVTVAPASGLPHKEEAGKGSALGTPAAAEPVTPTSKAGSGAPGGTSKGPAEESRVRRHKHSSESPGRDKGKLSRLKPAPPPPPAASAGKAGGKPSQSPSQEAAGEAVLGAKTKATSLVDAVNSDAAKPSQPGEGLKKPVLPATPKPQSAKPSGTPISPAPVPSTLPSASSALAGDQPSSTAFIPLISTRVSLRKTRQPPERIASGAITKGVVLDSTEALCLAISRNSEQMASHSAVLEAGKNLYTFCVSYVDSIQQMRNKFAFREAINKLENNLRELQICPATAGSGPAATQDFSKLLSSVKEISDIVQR
Text: as §1, §2, §3

CAMK2A = molecular target: T15, CAMK2A (Homo sapiens, UniProt Q9UQM7)
T15 construct: purchased Ambit Biosciences Corp (KinomeScan); host or cells: E. coli host derived from the BL21 strain, T7 phage
T15 sequence (Q9UQM7 whole entry): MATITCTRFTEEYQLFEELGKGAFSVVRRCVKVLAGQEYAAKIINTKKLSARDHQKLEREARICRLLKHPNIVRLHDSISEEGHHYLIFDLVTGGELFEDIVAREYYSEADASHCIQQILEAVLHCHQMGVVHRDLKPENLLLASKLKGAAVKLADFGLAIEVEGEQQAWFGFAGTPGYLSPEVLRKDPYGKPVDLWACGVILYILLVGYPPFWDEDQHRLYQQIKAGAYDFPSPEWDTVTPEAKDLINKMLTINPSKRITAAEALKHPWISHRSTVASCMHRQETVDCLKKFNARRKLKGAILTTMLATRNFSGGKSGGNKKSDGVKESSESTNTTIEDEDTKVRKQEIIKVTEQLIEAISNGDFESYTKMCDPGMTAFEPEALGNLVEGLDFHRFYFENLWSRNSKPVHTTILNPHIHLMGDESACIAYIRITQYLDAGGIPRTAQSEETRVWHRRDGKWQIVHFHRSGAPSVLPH
Text: as §1, §2, §3

MRCKB = molecular target: T16, MRCKB (Homo sapiens, UniProt Q9Y5S2)
T16 construct: host or cells: T7 phage in E. coli host derived from BL21
Text: as §1, §2, §3

[2] = molecular target: T17, JAK1 (JH1domain-catalytic) (Homo sapiens, UniProt P23458)
T17 construct: JAK1 (JH1domain-catalytic); host or cells: T7 phage in E. coli host derived from BL21
T17 sequence (P23458 875-1153 limits assumed): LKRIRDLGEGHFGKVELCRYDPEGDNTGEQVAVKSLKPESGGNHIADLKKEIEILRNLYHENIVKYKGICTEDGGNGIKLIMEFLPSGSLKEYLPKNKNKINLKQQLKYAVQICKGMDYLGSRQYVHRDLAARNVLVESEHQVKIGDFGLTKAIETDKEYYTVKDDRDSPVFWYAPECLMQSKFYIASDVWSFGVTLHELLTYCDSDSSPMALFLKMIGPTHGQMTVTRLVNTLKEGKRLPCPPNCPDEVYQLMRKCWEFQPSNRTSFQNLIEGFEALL
Text: as §1, §2, §3

CHEK2 = molecular target: T18, CHEK2 (Homo sapiens, UniProt O96017)
T18 construct: host or cells: T7 phage in E. coli (BL21-derived)
Text: as §1, §2, §3

JNK1 = molecular target: T19, JNK1 (Homo sapiens, UniProt P45983)
T19 construct: host or cells: T7 phage in E. coli host derived from BL21
Text: as §1, §2, §3

PIK3C2B = molecular target: T20, PIK3C2B (Homo sapiens, UniProt O00750)
T20 construct: host or cells: E. coli host derived from the BL21 strain, infected with T7 phage
Text: as §1, §2, §3

PLK1 = molecular target: T21, PLK1 (Homo sapiens, UniProt P53350)
T21 construct: purchased Ambit Biosciences Corp (KinomeScan); host or cells: E. coli host derived from BL21, infected with T7 phage
Text: as §1, §2, §3

T1 sequence (Q6PHR2 whole entry): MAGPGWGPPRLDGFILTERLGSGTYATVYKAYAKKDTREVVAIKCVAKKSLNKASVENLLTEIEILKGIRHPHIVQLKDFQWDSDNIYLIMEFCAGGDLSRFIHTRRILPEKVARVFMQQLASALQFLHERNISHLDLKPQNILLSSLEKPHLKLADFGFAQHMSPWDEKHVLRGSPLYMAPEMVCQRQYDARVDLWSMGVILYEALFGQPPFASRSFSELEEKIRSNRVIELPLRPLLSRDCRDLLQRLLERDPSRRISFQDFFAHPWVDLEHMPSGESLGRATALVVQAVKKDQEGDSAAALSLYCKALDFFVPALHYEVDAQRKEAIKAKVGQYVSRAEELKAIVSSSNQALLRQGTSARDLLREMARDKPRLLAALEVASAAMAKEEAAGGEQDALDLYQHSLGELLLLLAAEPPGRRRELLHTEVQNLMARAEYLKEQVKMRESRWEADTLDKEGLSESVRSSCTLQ

C#Cc1cccc(Nc2ncnc3cc(OC)c(OCCCN4CCOCC4)cc23)c1 [NRC-2694, N-(3-ethylnylphenyl)-7-methoxy-6-[3-(4-morpholinyl)propoxy]-4-quinazolinamine]
% Ctrl @ 10000 nM (ULK3): 62 % Ctrl | % Ctrl @ 10000 nM (INSR): 90 % Ctrl | % Ctrl @ 10000 nM (STK35): 52 % Ctrl | % Ctrl @ 10000 nM (MEK3): 100 % Ctrl | % Ctrl @ 10000 nM (BTK): 77 % Ctrl | % Ctrl @ 10000 nM (JNK2): 95 % Ctrl | % Ctrl @ 10000 nM (ITK): 82 % Ctrl | % Ctrl @ 10000 nM (IKK-alpha): 41 % Ctrl | % Ctrl @ 10000 nM (EPHA3): 56 % Ctrl | % Ctrl @ 10000 nM (EGFR (E746-A750del)): 0 % Ctrl | % Ctrl @ 10000 nM [1]: 97 % Ctrl | % Ctrl @ 10000 nM (RET (M918T)): 37 % Ctrl | % Ctrl @ 10000 nM (PKMYT1): 74 % Ctrl | % Ctrl @ 10000 nM (ABL1 (E255K)): 80 % Ctrl | % Ctrl @ 10000 nM (CAMK2A): 63 % Ctrl | % Ctrl @ 10000 nM (MRCKB): 71 % Ctrl | % Ctrl @ 10000 nM [2]: 15 % Ctrl | % Ctrl @ 10000 nM (CHEK2): 38 % Ctrl | % Ctrl @ 10000 nM (JNK1): 99 % Ctrl | % Ctrl @ 10000 nM (PIK3C2B): 93 % Ctrl | % Ctrl @ 10000 nM (PLK1): 81 % Ctrl
